Source: paper PMC8156934, “Photophysical Study and Biological Applications of Synthetic Chalcone-Based Fluorescent Dyes” (Molecules, 2021)
≈ marks a conversion by molar mass, not a printed value. Blank lines part the entries; values can stand above or below the compound they belong to.

Key:
[1] = 0.1 M NaOH, used as standard; no reference given; cited from earlier work
[2] = pH effect on fluorescence emission; format: physicochemical; details: pH range from 2 to 12, 2 µM, 3% Tween 80
Protocol: Chalcones 3a–f (2 µM) were dissolved in commercial pH 1–12 buffers purchased from Merck (St. Louis, MO, USA) (glycine/NaCl/HCl for pH 1, citric acid/NaOH/HCl for pH 2–6, Na2HPO4/KH2PO4 for pH 7, boric acid/ KCl/NaOH for pH 8–11, Na3PO4/NaOH for pH 12) in the presence of Tween 80 (3% w/w). The actual pH values of the final buffer solutions were measured by a pH meter. The resulting solutions were examined by a Spectrofluorometer (PerkinElmer LS55) at the maximum absorbance wavelength of each compound.

E. coli 780 = test: Antibacterial activity test (MIC, MBC, growth curve); format: cell-based, Escherichia coli; details: Escherichia coli, E. coli 780, mean ± SD of three independent experiments
Protocol: (§1) All bacteria strains were obtained from the Thailand Institute of Scientific and Technological Research (TISTR). The antibacterial activity of chalcones 3a–f was determined by the minimal inhibitory concentration (MIC) and the minimal bactericidal concentration (MBC) against the Gram-positive (S. aureus 1466, TISTR 1466) and Gram-negative (E.coli 780, TISTR 780) bacteria. The stocks of chalcones 3a–f (0.60 mg/mL) were serially diluted in Muller–Hinton (MH) broth to obtain concentrations in the range of 250–1000 µM. The solutions of chalcones 3a–f (100 µL) at different concentrations were added in the culture of the tested bacteria (100 µL) at a concentration of 1 × 10^6 colony-forming units/mL (CFU/mL) in MH broth at 37 °C with shaking at 80 rpm. The bacterial numbers were determined by measuring the optical density at 600 nm by a UV–Vis spectrometer. […] To determine the MBC values, the bacterial cultures (10 µL) containing the solutions of chalcones 3a–f at MIC and three higher concentrations were dropped on MH agar plates.

[3] = Photophysical properties (UV–Vis absorption and fluorescence spectra); format: physicochemical; details: for λabs absorption maximum wavelength / ∆λ stokes shifts (λem − λabs) / λem emission maximum wavelength / Φf fluorescence quantum yields: 2 µM; for λem emission maximum wavelength: excited at the maximum absorption wavelength; for Φf fluorescence quantum yields: n = 3, relative to fluorescein in 0.1 M NaOH
Protocol: All UV–Vis absorption and fluorescence spectra were recorded on a UV–Vis Spectrophotometer (Agilent Technologies Cary 300, Santa Clara, CA, USA) and a Spectrofluorometer (PerkinElmer LS55, Waltham, MA, USA), respectively. In both experiments, the stock solutions of chalcones 3a–f were prepared as 0.5 mM in DMSO. The appropriate amount of the stock solution was added to DMSO, MeOH, and 0.01 M PBS buffer (pH 7.4) with 3% Tween 80 (3 mL) to obtain the final concentration of 2 µM in the testing solutions. For fluorescence experiments, the emission spectra were recorded at the maximum absorbance wavelength of each compound. The fluorescent quantum yields (Φf) were calculated relative to fluorescein in 0.1 M NaOH as a standard (Φf = 0.95).

HepG2 = test: Cell viability MTT assay, cancer cells; format: cell-based; details: Homo sapiens; HepG2, 24 h, MTT; read-out: IC50
Protocol: (§2) For fluorescence imaging of living cells, human embryonic kidney 293 (HEK-293, ATCC) and human hepatoma cancer cell (HepG2, ATCC) were cultured in Dulbecco′s Modified Eagle′s Medium (DMEM, HyClone) supplemented with 10% Fetal Bovine Serum (FBS, Gibco, Carlsbad, CA, USA) and 1% Penicillin/Streptomycin Solution 100X (Corning, Corning, NY, USA). All cells were cultured in a humidified incubator at 37 °C with 5% CO2. HEK-293 and HepG2 cells, approximately 1 × 10^4 cells, were seeded on 8-well chambered cover glasses (LabTek, Nunc, Carlsbad, CA, USA) and incubated in complete medium for 24 h. After that, the cells were treated with 5 μM stock solutions of 3a–f in DMSO/cell culture medium containing 10% FBS (0.25% DMSO), for 0, 1, 3, and 6 h. Then, the cells were washed twice with 0.01 M PBS before being visualized under a Laser-Scanning Confocal Microscope (Nikon A1Rsi) with a 60× oil immersion objective lens and living cell workstation with the excitation channel at 488 nm.
(§3) The cells were seeded on a 96-well plate, approximately 7 × 10^3 cells per well, and incubated in complete medium for 24 h. After that, the cells were treated with 0, 1, 5, 10, 20, and 50 μM of chalcones 3a–f, and culturing continued for 24 h. After incubation, the cells were washed three times with 10 mM PBS and treated with […] of methylthiazolyldiphenyl-tetrazolium bromide (MTT reagent, 0.5 mg mL^−1, Sigma-Aldrich, St. Louis, MO, USA) for 2–3 h. After medium removal, DMSO was added to dissolve the formazan product, and cell viability was determined by UV–Vis absorption of the resulting formazan at a wavelength of 560 nm in a microplate reader (BMG Labtech/SPECTROstar Nano, Ortenberg, Germany).

S. aureus 1466 = test: Antibacterial activity test (MIC, MBC, growth curve); format: cell-based, Staphylococcus aureus; details: Staphylococcus aureus, S. aureus 1466, mean ± SD of three independent experiments
Protocol: as §1

[4] = Photo-stability test (photobleaching under 250 W blue light); format: physicochemical; details: DMSO, 250 W blue light (380–500 nm), after 30 min irradiation
Protocol: Chalcones 3a–f were dissolved in DMSO at the final concentration of 1 × 10^−6 M for measuring absorption and emission intensity. Then, 3a–f were irradiated at 250 W (blue-lamp) at a distance of 75 cm. The UV–Visible absorption and fluorescence spectra of the solutions were measured at different time points including 0, 1, 5, 10, 15, 20, and 30 min. Photo-stability was reported in terms of photobleaching absorption and emission (%) calculated from the change of absorption and emission intensity at the absorption and emission maxima before and after irradiation.

HEK-293 = test: Cell viability MTT assay, normal cells; format: cell-based; details: Homo sapiens, HEK293; HEK-293, 24 h, MTT; read-out: IC50
Protocol: as §2, §3

Structure (SMILES): O=C1OC2(c3ccc(O)cc3Oc3cc(O)ccc32)c2ccccc21 [fluorescein]
Φf fluorescent quantum yield of the standard [1]: 0.95

fluorescence emission [2]: Higher emission peaks
MIC (E. coli 780; read-out: MIC): 375 ± 0.01 µM (≈ 99.9 µg/mL)
ε molar absorptivity ([3]; DMSO): 35000 M⁻¹ cm⁻¹
λabs absorption maximum wavelength ([3]; DMSO): 412 nm
∆λ stokes shifts (λem − λabs) ([3]; DMSO): 100 nm
λem emission maximum wavelength ([3]; DMSO): 512 nm
Φf fluorescence quantum yields ([3]; DMSO): 0.21 ± 0.03
ε molar absorptivity ([3]; MeOH): 31000 M⁻¹ cm⁻¹
λabs absorption maximum wavelength ([3]; MeOH): 414 nm
∆λ stokes shifts (λem − λabs) ([3]; MeOH): 135 nm
λem emission maximum wavelength ([3]; MeOH): 549 nm
Φf fluorescence quantum yields ([3]; MeOH): 0.027 ± 0.011
ε molar absorptivity ([3]; PBS (3%w/w tween 80)): 34000 M⁻¹ cm⁻¹
λabs absorption maximum wavelength ([3]; PBS (3%w/w tween 80)): 412 nm
∆λ stokes shifts (λem − λabs) ([3]; PBS (3%w/w tween 80)): 112 nm
λem emission maximum wavelength ([3]; PBS (3%w/w tween 80)): 524 nm
Φf fluorescence quantum yields ([3]; PBS (3%w/w tween 80)): 0.18 ± 0.02
IC50 (HepG2): 54 µM
MIC (S. aureus 1466; read-out: MIC): 375 ± 0.01 µM (≈ 99.9 µg/mL)
% photobleaching of absorbance [4]: 48%
% photobleaching of fluorescence [4]: 47%
Structure (SMILES): CN(C)c1ccc(/C=C/C(=O)c2ccc(N)cc2)cc1 [3f]
MBC (E. coli 780; read-out: MBC): 750 ± 0.01 µM (≈ 200 µg/mL)
MBC (S. aureus 1466; read-out: MBC): 1000 ± 0.04 µM (≈ 266 µg/mL)
IC50 (HEK-293): > 100 µM
